Read-outs that look alike come from different tables or passages of the source.
System: Human retinal pigmented epithelium cells (RPE)
Test: NO bioassay: DAF-FM DA fluorescence as indicator of NO in RPE cells
Assay type: cell-based
[1] = RPE cells in PBS supplemented with Ca2+ and Mg2+
[2] = RPE cells without calcium (calcium-free PBS)
[3] = Table 3, DAF-FM DA NO fluorescence change vs control, WT RPE cells in PBS with 5 mM Ca2+ + Mg2+ + 8 mM pyruvate, agent 300 ppm unless stated

Q: What does the source list for `CC(=O)OCOC(=O)CN(CC(=O)OCOC(C)=O)c1ccccc1OCCOc1ccccc1N(CC(=O)OCOC(C)=O)CC(=O)OCOC(C)=O` [BAPTA, 1,2-Bis(2-amino-phenoxy)ethane-N,N,N′,N′-tetraacetic acid tetrakis (acetoxymethyl ester)]?
A: NO level (DAF-FM DA fluorescence) relative to control, in words: lower; [(E − C)/C] × 100 (N = 6, A.U. %): 11%

Q: For `[Ca+2].[Cl-].[Cl-]` [Ca^2+, calcium chloride], which “NO level (DAF-FM DA fluorescence) relative to control, in words” value is on record?
A: slight decrease in NO

Q: For `[Ce+3]` [Ce^3+], which “NO level (DAF-FM DA fluorescence) relative to control, in words” value [1] is on record?
A: dropped by varying degrees

Q: What about the “NO level (DAF-FM DA fluorescence) relative to control, in words” value [2] of the same compound?
A: could not be restored

Q: What about the “[(E − C)/C] × 100 (N = 3, A.U. %)” value [3] of the same compound?
A: −96%

Q: How did the “[(E − C)/C] × 100 (N = 3, A.U. %)” value [3] turn out when `O=C1c2c(O)cccc2Cc2cccc(O)c21` [Dithranol] was run?
A: −69%

Q: How did the “NO level (DAF-FM DA fluorescence) relative to control, in words” value [1] turn out when `[Fe+3]` [Fe^3+] was run?
A: dropped by varying degrees

Q: What about the “NO level (DAF-FM DA fluorescence) relative to control, in words” value [2] of the same compound?
A: could not be restored

Q: And the “[(E − C)/C] × 100 (N = 3, A.U. %)” value [3]?
A: −93%

Q: Which “NO level (DAF-FM DA fluorescence) relative to control, in words” value does the source give for `O=NO` [Nitrite, sodium nitrite] here?
A: increased relative to control

Q: What about the “[(E − C)/C] × 100 (N = 3, A.U. %)” value of the same compound?
A: 2%

Q: Which “NO level (DAF-FM DA fluorescence) relative to control, in words” value [1] does the source give for `[Pr+3]` [Pr^3+] here?
A: dropped by varying degrees

Q: And the “NO level (DAF-FM DA fluorescence) relative to control, in words” value [2]?
A: could not be restored

Q: And the “[(E − C)/C] × 100 (N = 3, A.U. %)” value [3]?
A: −91%

Q: And the “decrease of NO (low DAF-FM DA fluorescence), modal” value (addition of agent to RPE cells, Table 3)?
A: 91%
